According to patent publication US12516044B2, “Heterocyclic compounds as immunomodulators” (Incyte Corporation, priority 2015, dated 2026):

The molecules below were run against T1, PD-1/PD-L1 protein/protein interaction (Homo sapiens, UniProt Q9NZQ7) (assay: PD-1/PD-L1 Homogeneous Time-Resolved Fluorescence (HTRF) Binding Assay). Conditions: recombinant human PD-L1 (19-238) His-tag and human PD-1 (25-167) Fc tag; 25° C., PBS pH 7.4.
T1 construct: Recombinant human PD-L1 protein (19-238) with a His-tag at the C-terminus; purchased AcroBiosystems PD1-H5229 (PD-L1-His); PD1-H5257 (PD-1-Fc)
T1 sequence (Q9NZQ7 19-238): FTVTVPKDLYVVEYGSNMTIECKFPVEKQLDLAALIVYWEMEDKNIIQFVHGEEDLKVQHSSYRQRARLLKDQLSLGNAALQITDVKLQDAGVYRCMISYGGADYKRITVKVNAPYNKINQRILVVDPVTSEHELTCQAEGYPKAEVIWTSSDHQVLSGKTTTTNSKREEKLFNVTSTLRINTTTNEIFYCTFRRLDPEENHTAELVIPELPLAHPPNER
Method: Example A. PD-1/PD-L1 Homogeneous Time-Resolved Fluorescence (HTRF) Binding Assay
The assays were conducted in a standard black 384-well polystyrene plate with a final volume of 20 μL. Inhibitors were first serially diluted in DMSO and then added to the plate wells before the addition of other reaction components. The final concentration of DMSO in the assay was 1%. The assays were carried out at 25° C. in the PBS buffer (pH 7.4) with 0.05% Tween-20 and 0.1% BSA. Recombinant human PD-L1 protein (19-238) with a His-tag at the C-terminus was purchased from AcroBiosystems (PD1-H5229). Recombinant human PD-1 protein (25-167) with Fc tag at the C-terminus was also purchased from AcroBiosystems (PD1-H5257). PD-L1 and PD-1 proteins were diluted in the assay buffer and 10 μL was added to the plate well. Plates were centrifuged and proteins were preincubated with inhibitors for 40 minutes. The incubation was followed by the addition of […] of HTRF detection buffer supplemented with Europium cryptate-labeled anti-human IgG (PerkinElmer-AD0212) specific for Fc and anti-His antibody conjugated to SureLight®-Allophycocyanin (APC, PerkinElmer-AD0059H). After centrifugation, the plate was incubated at 25° C. for 60 min. before reading on a PHERAstar FS plate reader (665 nm/620 nm ratio). Final concentrations in the assay were […] PD1, 10 nM PD-L1, 1 nM europium anti-human IgG and 20 nM anti-His-Allophycocyanin. IC50 determination was performed by fitting the curve of percent control activity versus the log of the inhibitor concentration using the GraphPad Prism 5.0 software.
For `Cc1c(NC(=O)c2ncccn2)cccc1-c1ccccc1` [Example 28, N-(2-methylbiphenyl-3-yl)pyrimidine-2-carboxamide], the IC50 was 100 to 1000 nM.
With `N#Cc1c(NC(=O)c2ccc(CNCCO)cn2)cccc1-c1ccc2c(c1)OCCO2` [Example 10, N-(2-cyano-3-(2,3-dihydrobenzo[b][1,4]dioxin-6-yl)phenyl)-5-((2-hydroxyethylamino)methyl)picolinamide] the IC50 was at most 10 nM.
Molecule `Cc1c(NC(=O)c2ccncn2)cccc1-c1ccccc1` [Example 27, N-(2-methylbiphenyl-3-yl)pyrimidine-4-carboxamide] has an IC50 of 10 to 100 nM.
`Cc1c(NC(=O)c2ncc(CNCCO)cc2Cl)cccc1-c1ccccc1` [Example 16, 3-chloro-5-{[(2-hydroxyethyl)amino]methyl}-N-(2-methylbiphenyl-3-yl)pyridine-2-carboxamide] was tested, and the IC50 was 10 to 100 nM.
Work on `Cc1c(NC(=O)c2ncc(CNCCO)cn2)cccc1-c1ccccc1` [Example 6, 5-{[(2-hydroxyethyl)amino]methyl}-N-(2-methylbiphenyl-3-yl)pyrimidine-2-carboxamide] yielded an IC50 of 10 to 100 nM.
`N#Cc1c(NC(=O)c2ccc(CNCCO)cn2)cccc1C1=COCCC1` [Example 44, N-[2-cyano-3-(3,4-dihydro-2H-pyran-5-yl)phenyl]-5-{[(2-hydroxyethyl)amino]methyl}pyridine-2-carboxamide] showed an IC50 of 10 to 100 nM.
For `Cc1c(NC(=O)c2ncc(CNCCO)cc2N(C)C)cccc1-c1ccccc1` [Example 21, 3-(dimethylamino)-5-{[(2-hydroxyethyl)amino]methyl}-N-(2-methylbiphenyl-3-yl)pyridine-2-carboxamide], the IC50 was 100 to 1000 nM.
`Cn1ncc2c(-c3cccc(NC(=O)c4ccc(CNCCO)cn4)c3C#N)cccc21` [Example 49, N-[2-cyano-3-(1-methyl-1H-indazol-4-yl)phenyl]-5-{[(2-hydroxyethyl)amino]methyl}pyridine-2-carboxamide] showed an IC50 of at most 10 nM.
`Cc1c(NC(=O)c2cnc(CNCCO)cn2)cccc1-c1ccccc1` [Example 11, 5-{[(2-hydroxyethyl)amino]methyl}-N-(2-methylbiphenyl-3-yl)pyrazine-2-carboxamide] was tested, and the IC50 was 10 to 100 nM.
Molecule `Cc1c(NC(=O)c2ccc(CN3CCCC[C@H]3C(=O)O)cn2)ccnc1-c1ccccc1` [Example 42, (S)-1-((6-(3-methyl-2-phenylpyridin-4-ylcarbamoyl)pyridin-3-yl)methyl)piperidine-2-carboxylic Acid] has an IC50 of over 1000 nM.
For `N#Cc1c(NC(=O)c2ccc(CN3CCCC[C@H]3C(=O)O)cn2)cccc1-c1ccc2c(c1)OCCO2` [Example 9, (2S)-1-{[6-({[2-cyano-3-(2,3-dihydro-1,4-benzodioxin-6-yl)phenyl]amino}carbonyl)pyridin-3-yl]methyl}piperidine-2-carboxylic Acid], the IC50 was 10 to 100 nM.
In the case of `Cc1c(NC(=O)c2cc(OCc3cccc(C#N)c3)c(CNCCO)cn2)cccc1-c1ccccc1` [Example 18, 4-[(3-cyanobenzyl)oxy]-5-{[(2-hydroxyethyl)amino]methyl}-N-(2-methylbiphenyl-3-yl)pyridine-2-carboxamide], the IC50 is reported as 10 to 100 nM.
`Cc1cnc(C(=O)Nc2cccc(-c3ccccc3)c2C)cc1CNCCO` [Example 37, 4-{[(2-hydroxyethyl)amino]methyl}-5-methyl-N-(2-methylbiphenyl-3-yl)pyridine-2-carboxamide] was tested, and the IC50 was 10 to 100 nM.
Molecule `Cc1c(NC(=O)c2ccc(CNCCO)cn2)cc(F)cc1-c1ccc2c(c1)OCCO2` [Example 45, N-[3-(2,3-dihydro-1,4-benzodioxin-6-yl)-5-fluoro-2-methylphenyl]-5-{[(2-hydroxyethyl)amino]methyl}pyridine-2-carboxamide] has an IC50 of at most 10 nM.
Work on `COc1cc(C(=O)Nc2cccc(-c3ccccc3)c2C)ncc1CNCCO` [Example 35, 5-{[(2-hydroxyethyl)amino]methyl}-4-methoxy-N-(2-methylbiphenyl-3-yl)pyridine-2-carboxamide] yielded an IC50 of at most 10 nM.
`Cc1nc(C(=O)Nc2cccc(-c3ccccc3)c2C)ccc1CNCCO` [Example 14, 5-{[(2-hydroxyethyl)amino]methyl}-6-methyl-N-(2-methylbiphenyl-3-yl)pyridine-2-carboxamide] gave an IC50 of 10 to 100 nM.
